Assay results taken from patent publication US6420131B1, “Use of fluorescein aryl ethers in high throughput cytochrome P450 inhibition assays” (Gentest Corporation, priority 1999, dated 2002).

Legend:
Rat CYP2D2 = target: T1, Rat CYP2D2 (Rattus norvegicus, UniProt P10634); experiment: Turnover of fluorometric substrates by rat CYP2D2; details: substrate uM: Ia 2, AMMC 20, CEC 40, MFC 50, BFC 50, BQ 40, BzRes 50; 30 min; enzyme 50 nM
T1 sequence (P10634 1-500): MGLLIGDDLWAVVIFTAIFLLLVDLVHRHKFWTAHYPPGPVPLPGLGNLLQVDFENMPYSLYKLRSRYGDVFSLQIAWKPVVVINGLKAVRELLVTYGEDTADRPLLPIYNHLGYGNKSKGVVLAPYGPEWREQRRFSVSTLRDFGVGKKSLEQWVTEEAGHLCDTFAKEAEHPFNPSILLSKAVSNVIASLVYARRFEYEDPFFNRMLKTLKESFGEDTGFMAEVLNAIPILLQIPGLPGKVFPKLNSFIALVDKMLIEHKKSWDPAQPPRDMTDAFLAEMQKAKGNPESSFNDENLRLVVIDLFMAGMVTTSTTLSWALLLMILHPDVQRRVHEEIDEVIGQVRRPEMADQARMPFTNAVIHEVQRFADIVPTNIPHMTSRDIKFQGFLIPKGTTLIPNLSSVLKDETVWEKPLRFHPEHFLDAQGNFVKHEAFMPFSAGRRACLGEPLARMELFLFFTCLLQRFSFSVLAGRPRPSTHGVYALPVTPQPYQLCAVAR

Rat CYP2C6 = target: T2, Rat CYP2C6 (Rattus norvegicus, UniProt P05178); experiment: Turnover of fluorometric substrates by rat CYP2C6; details: substrate uM: Ia 2, AMMC 20, CEC 40, MFC 50, BFC 50, BQ 40, BzRes 50; 30 min; enzyme 50 nM
T2 sequence (P05178 1-490): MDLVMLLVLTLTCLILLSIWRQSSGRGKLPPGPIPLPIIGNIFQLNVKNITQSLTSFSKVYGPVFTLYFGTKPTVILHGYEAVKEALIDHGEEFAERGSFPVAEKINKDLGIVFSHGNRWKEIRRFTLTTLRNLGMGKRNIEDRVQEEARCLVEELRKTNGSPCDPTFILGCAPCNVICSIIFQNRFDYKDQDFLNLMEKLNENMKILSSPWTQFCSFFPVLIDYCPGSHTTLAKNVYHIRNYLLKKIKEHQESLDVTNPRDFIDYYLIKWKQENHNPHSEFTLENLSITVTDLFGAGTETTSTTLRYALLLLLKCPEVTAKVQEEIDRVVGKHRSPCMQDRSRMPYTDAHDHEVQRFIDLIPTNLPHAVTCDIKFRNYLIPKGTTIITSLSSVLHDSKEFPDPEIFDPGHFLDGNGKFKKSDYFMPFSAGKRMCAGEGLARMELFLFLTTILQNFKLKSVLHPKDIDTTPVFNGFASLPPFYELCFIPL

Rat CYP1A1 = target: T3, Rat CYP1A1 (Rattus norvegicus, UniProt P00185); experiment: Turnover of fluorometric substrates by rat CYP1A1; details: substrate uM: Ia 2, AMMC 20, CEC 40, MFC 50, BFC 50, BQ 40, BzRes 50; 30 min; enzyme 50 nM (2.5 nM for CEC)
T3 sequence (P00185 1-524): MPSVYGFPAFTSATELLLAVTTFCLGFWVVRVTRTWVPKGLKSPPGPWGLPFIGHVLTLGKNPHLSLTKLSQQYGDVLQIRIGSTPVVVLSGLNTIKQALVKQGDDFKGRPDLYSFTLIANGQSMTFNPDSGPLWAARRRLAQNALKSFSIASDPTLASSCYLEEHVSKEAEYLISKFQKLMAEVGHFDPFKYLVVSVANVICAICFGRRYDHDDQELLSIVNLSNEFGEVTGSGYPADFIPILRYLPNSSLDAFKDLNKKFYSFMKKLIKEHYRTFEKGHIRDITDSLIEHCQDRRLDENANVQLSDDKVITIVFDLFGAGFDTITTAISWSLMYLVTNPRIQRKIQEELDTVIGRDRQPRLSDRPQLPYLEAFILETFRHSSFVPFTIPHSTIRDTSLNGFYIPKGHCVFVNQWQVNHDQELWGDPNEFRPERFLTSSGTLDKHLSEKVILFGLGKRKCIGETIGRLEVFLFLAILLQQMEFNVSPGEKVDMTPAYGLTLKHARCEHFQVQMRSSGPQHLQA

Rat CYP1A2 = target: T4, Rat CYP1A2 (Rattus norvegicus, UniProt P04799); experiment: Turnover of fluorometric substrates by rat CYP1A2; details: substrate uM: Ia 2, AMMC 20, CEC 40, MFC 50, BFC 50, BQ 40, BzRes 50; 30 min; enzyme 50 nM
T4 sequence (P04799 1-513): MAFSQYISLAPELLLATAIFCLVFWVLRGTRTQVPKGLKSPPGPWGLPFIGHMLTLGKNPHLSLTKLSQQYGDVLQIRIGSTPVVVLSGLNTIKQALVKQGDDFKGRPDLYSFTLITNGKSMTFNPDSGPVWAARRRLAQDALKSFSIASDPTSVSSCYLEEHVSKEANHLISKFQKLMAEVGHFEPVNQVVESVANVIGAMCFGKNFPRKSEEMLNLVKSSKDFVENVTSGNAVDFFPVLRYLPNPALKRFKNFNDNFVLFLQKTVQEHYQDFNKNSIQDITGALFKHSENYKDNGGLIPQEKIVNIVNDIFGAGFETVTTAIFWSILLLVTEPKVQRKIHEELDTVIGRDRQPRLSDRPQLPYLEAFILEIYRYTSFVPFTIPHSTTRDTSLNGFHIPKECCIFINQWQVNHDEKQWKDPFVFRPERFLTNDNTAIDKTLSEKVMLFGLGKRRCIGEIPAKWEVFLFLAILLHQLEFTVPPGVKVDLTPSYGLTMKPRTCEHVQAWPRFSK

Rat CYP2B1 = target: T5, Rat CYP2B1 (Rattus norvegicus, UniProt P00176); experiment: Turnover of fluorometric substrates by rat CYP2B1; details: substrate uM: Ia 2, AMMC 20, CEC 40, MFC 50, BFC 50, BQ 40, BzRes 50; 30 min; enzyme 50 nM
T5 sequence (P00176 1-491): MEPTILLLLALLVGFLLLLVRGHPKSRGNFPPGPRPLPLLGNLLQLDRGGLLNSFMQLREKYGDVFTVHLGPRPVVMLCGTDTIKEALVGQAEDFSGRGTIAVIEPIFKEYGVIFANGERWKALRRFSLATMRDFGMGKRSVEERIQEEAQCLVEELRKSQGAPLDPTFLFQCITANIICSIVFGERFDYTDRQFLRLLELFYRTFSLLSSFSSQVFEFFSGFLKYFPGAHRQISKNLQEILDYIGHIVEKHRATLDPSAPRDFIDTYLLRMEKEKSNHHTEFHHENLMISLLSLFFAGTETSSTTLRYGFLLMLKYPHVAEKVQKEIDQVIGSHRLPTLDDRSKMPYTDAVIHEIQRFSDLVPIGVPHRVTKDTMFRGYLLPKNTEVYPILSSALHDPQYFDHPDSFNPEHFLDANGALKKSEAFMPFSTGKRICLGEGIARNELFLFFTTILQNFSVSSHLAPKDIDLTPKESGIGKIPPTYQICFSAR

Row | SMILES | Turnover Numbers, CYP2D2 (Rat CYP2D2) | Turnover Numbers, CYP2C6 (Rat CYP2C6) | Turnover Numbers, CYP1A1 (Rat CYP1A1) | Turnover Numbers, CYP1A2 (Rat CYP1A2) | Turnover Numbers, CYP2B1 (Rat CYP2B1)
1 | c1ccc(COc2ccc3cccnc3c2)cc1 [BQ, 7-Benzyloxyquinoline] | 4.4 pmol product/min/pmol enzyme | 1.9 pmol product/min/pmol enzyme | 5.7 pmol product/min/pmol enzyme | 2.3 pmol product/min/pmol enzyme | 2.5 pmol product/min/pmol enzyme
2 | COc1ccc2c(C(F)(F)F)cc(=O)oc2c1 [MFC, 7-Methoxy-4-trifluoromethylcoumarin] | 0.08 pmol product/min/pmol enzyme | 11.5 pmol product/min/pmol enzyme | 1.03 pmol product/min/pmol enzyme | 1.32 pmol product/min/pmol enzyme | 2.82 pmol product/min/pmol enzyme
3 | O=c1cc(C(F)(F)F)c2ccc(OCc3ccccc3)cc2o1 [BFC, 7-Benzyloxy-4-trifluoromethylcoumarin] | 0.12 pmol product/min/pmol enzyme | 2.62 pmol product/min/pmol enzyme | 0.34 pmol product/min/pmol enzyme |  | 3.70 pmol product/min/pmol enzyme
4 | CCOc1ccc2cc(C#N)c(=O)oc2c1 [CEC, 7-Ethoxy-3-cyanocoumarin] |  | 2.14 pmol product/min/pmol enzyme | 78 pmol product/min/pmol enzyme | 1.38 pmol product/min/pmol enzyme | 0.45 pmol product/min/pmol enzyme
5 | O=c1ccc2nc3ccc(OCc4ccccc4)cc3oc-2c1 [BzRes, 7-benzyloxyresorufin] |  | 0.02 pmol product/min/pmol enzyme | 1.35 pmol product/min/pmol enzyme | 0.62 pmol product/min/pmol enzyme | 0.82 pmol product/min/pmol enzyme
6 | O=C(OCc1ccccc1)c1ccccc1-c1c2ccc(=O)cc-2oc2cc(OCc3ccccc3)ccc12 [Compound Ia, O-Benzylfluorescein Benzyl Ester] | 0.194 pmol product/min/pmol enzyme | 0.021 pmol product/min/pmol enzyme | 0.211 pmol product/min/pmol enzyme | 0.041 pmol product/min/pmol enzyme | 
